Test system: HSV-1 K26-GFP
Test: microbe, parasite or virus in culture
Format: cell-based, HSV-1 (F strain)
Settings: Human alphaherpesvirus 1, Vero, 24 h; for inhibition at 20 µM: read-out: percentage inhibition at the highest concentration tested (20 µM)

Compound | EC50 | inhibition at 20 µM
O=C1c2c(O)c(=O)ccn2N([C@@H]2c3ccccc3SCc3c2ccc(F)c3F)[C@@H]2COCCN12 [Baloxavir acid, reference compound] | > 20 µM | 40.7%
O=C1c2c(O)c(=O)ccn2N(Cc2ccc(C(F)(F)F)cc2)[C@@H]2COCCN12 [Compound 7, (R)-7-hydroxy-12-(4-(trifluoromethyl)benzyl)-3,4,12,12a-tetrahydro-1H-[1,4]oxazino[3,4-c]pyrido[2,1-f][1,2,4]triazine-6,8-dione] | 3.4 ± 2.7 µM | –
COC(=O)OCOc1c2n(ccc1=O)N([C@@H]1c3ccccc3SCc3c1ccc(F)c3F)[C@@H]1COCCN1C2=O [Baloxavir marboxil, reference compound] | > 20 µM | 13.7%
O=C1c2c(O)c(=O)ccn2N(Cc2ccc(-c3ccco3)cc2)[C@@H]2COCCN12 [Compound 18, (R)-12-(4-(furan-2-yl)benzyl)-7-hydroxy-3,4,12,12a-tetrahydro-1H-[1,4]oxazino[3,4-c]pyrido[2,1-f][1,2,4]triazine-6,8-dione] | > 20 µM | 48.5%
O=C1c2c(O)c(=O)ccn2N(Cc2ccc(-c3ccc(OC(F)(F)F)cc3)cc2)[C@@H]2COCCN12 [Compound 32, (R)-7-hydroxy-12-((4'-(trifluoromethoxy)-[1,1'-biphenyl]-4-yl)methyl)-3,4,12,12a-tetrahydro-1H-[1,4]oxazino[3,4-c]pyrido[2,1-f][1,2,4]triazine-6,8-dione] | 8.9 ± 1 µM | –
Nc1nc2c(ncn2COCCO)c(=O)[nH]1 [Acyclovir (ACV), Acyclovir, reference compound] | 0.68 ± 0.11 µM | –
O=C1c2c(O)c(=O)ccn2N(Cc2ccc(Cl)c(F)c2)[C@@H]2COCCN12 [Compound 10, (R)-12-(4-chloro-3-fluorobenzyl)-7-hydroxy-3,4,12,12a-tetrahydro-1H-[1,4]oxazino[3,4-c]pyrido[2,1-f][1,2,4]triazine-6,8-dione] | 10.3 ± 0.9 µM | –
O=C1c2c(O)c(=O)ccn2N(Cc2ccc(-c3ccc(F)cc3)cc2)[C@@H]2COCCN12 [Compound 29, (R)-12-((4'-fluoro-[1,1'-biphenyl]-4-yl)methyl)-7-hydroxy-3,4,12,12a-tefrahydro-1H-[1,4]oxazino[3,4-c]pyrido[2,1-f][1,2,4]triazine-6,8-dione] | 4 ± 1.3 µM | –
CC(C)c1ccc(O)c(O)c(=O)c1 [β-thujaplicinol, reference compound] | 3.9 ± 0.9 µM | –
O=C1c2c(O)c(=O)ccn2N(Cc2ccc(-c3ccccc3)cc2)[C@@H]2COCCN12 [Compound 19, (R)-12-([1,1'-biphenyl]-4-yimethyl)-7-hydroxy-3,4,12,12a-tetrahydro-1H-[1,4]oxazino[3,4-c]pyrido[2,1-f][1,2,4]triazine-6,8-dione] | 2.8 ± 1.1 µM | –

— patent publication EP4818175A1, “NOVEL ANTIVIRAL COMPOUNDS” (Consejo Superior de Investigaciones Científicas (CSIC), priority 2025, dated 2026)
